In patent US5157039A, “2-quinolinyl methoxy compounds, medical uses and intermediates therefor” (Leo Pharmaceutical Products Ltd., priority 1985, dated 1992):
Where two headings read alike, the source gives them in different places.

Tests used:
[1] = tested on: leukotriene D4-induced contraction of guinea-pig ileum strips; test: Leukotriene D4-induced contraction of isolated guinea-pig ileum strips (leukotriene antagonism); settings: leukotriene D4 10^-9 M; atropine and indomethacin present
Description: Antagonism of leukotriene mediated effects at the receptor level, in addition to inhibition of leukotriene synthesis, is an additional mode of action of some of the present compounds. Obviously, this dual mechanism is of potentially great interest in preventing leukotriene mediated reactions.
Leukotriene antagonists may be identified by observing the contractions elicited in preparations of guinea-pig ileum strips suspended in physiological buffers by addition of pure leukotriene D4. The ileum strips are connected to an isotonic transducer, and the contractions are continuously recorded on a multichannel recorder.
Before addition of leukotriene D4, atropine and indomethacin are added to the buffer in order to block any cholinergic or prostaglandin-mediated contractile effects. Test compounds to be studied with respect to leukotriene antagonism are dissolved in dimethylsulphoxide (DMSO) and added to the organ bath 2 minutes prior to addition of leukotriene D4 at 10^-9 M (final concentration), the final concentration of DMSO being 0.1%, a concentration which can be shown not to affect the ileum response to leukotriene D4. The test compounds may be added at various concentrations, often beginning at 10^-6 M and then decreasing the concentration in case of antagonism.

[2] = tested on: IL-8 mRNA in peripheral blood mononuclear cells (PBMC); test: IL-8 mRNA synthesis in LPS-stimulated peripheral blood mononuclear cells (cDNA probe); type: cell-based; settings: submicromolar concentrations
Description: (§1) These effects were obtained using submicromolar concentrations of the two compounds.

gene expression of IL-8 = test: Gene expression of IL-8 in endothelial cells, fibroblasts and keratinocytes stimulated by LPS or IL-1; type: cell-based
Description: as §1

IL-1 mRNA in PBMC = test: IL-1 mRNA production in LPS-stimulated PBMC; type: cell-based
Description: as §1

[3] = tested on: IL-1 release from inflammatory cells; test: IL-1 release from inflammatory cells; type: cell-based
Description: as §1

rat peritoneal mast cell = test: Rat peritoneal mast cell histamine release; type: cell-based
Description: Products formed by the enzyme responsible for the first step in leukotriene synthesis, 5-lipoxygenase, which is probably the target enzyme of compounds of the present invention, play a role as mediators of mast cell degranulation. One of the effects of mast cell degranulation is the release of histamine. Thus, 5-lipoxygenase inhibitors may suppress histamine release from mast cells.
In order to investigate this possibility, cells obtained from washings of the peritoneal cavity of rats, were studied. These peritoneal washings contain mainly macrophages and mast cells. The mast cells were passively sensitized with IgE-antibodies to ovalbumin, and then challenged with the antigen, ovalbumin, to induce histamine release. Alternatively, the unsensitized mast cells were exposed to an […], compound 48/80*, which induces histamine release independently of immunologic mechanisms. Histamine released to the medium after degranulation of the peritoneal mast cells was measured by a fluorometric method.
* (the condensation product of N-methyl-p-methoxyphenethylamine with formaldehyde)

5-lipoxygenase = 5-lipoxygenase activity in vitro in A 23187-stimulated rat peritoneal cells (radiolabelled arachidonic acid metabolites); type: cell-based; settings: final concentrations from 10^-6 M and above
Description: The biological activity of the present compounds was determined both in vitro and in vivo. The following method was used to assay 5-lipoxygenase activity in vitro: Rat peritoneal cells were harvested by i.p. injection of 10 ml Hank's balanced salt solution (GIBCO), cat. No. 4025, U.S.A.) containing 12.5 U/ml sodium heparin (Leo, Denmark) in anaesthesized rats. The resulting cell suspension, which mainly contained macrophages, was transferred to a test tube and washed twice by centrifugation (200 g, 10 min.) and resuspended in Hank's balanced salt solution containing 0.5% bovine serum albumin (Sigma Chem. Co., U.S.A.). The cells from 6 rats were finally resuspended in Hank's balanced salt solution containing 5 μCi (1-^14 C) arachidonic acid (The Radiochemical Centre, Amersham, U.K.) and incubated for 90 minutes at 30° C. […] An aliquot of the supernatant was counted by liquid scintillation spectrometry in order to calculate the total radioactive release induced by A 23187 in presence of drugs. […] Radioactive spots were detected by autoradiography (AGFA-GEVAERT, Osray-RPI X-ray film, Belgium), and changes induced by drugs in the metabolic pattern of arachidonic acid were quantified by a laser densitometer (LKB, Ultroscan™ 2202, Bromma, Sweden) in combination with an integrating computer (SP 4100, SpectraPhysics, San Jose, Calif., U.S.A.). […]

cyclooxygenase = test: Synthesis of cyclooxygenase products in A 23187-stimulated rat peritoneal cells (same assay); type: cell-based; settings: final concentrations from 10^-6 M and above
Description: The biological activity of the present compounds was determined both in vitro and in vivo. The following method was used to assay 5-lipoxygenase activity in vitro: Rat peritoneal cells were harvested by i.p. injection of 10 ml Hank's balanced salt solution (GIBCO), cat. No. 4025, U.S.A.) containing 12.5 U/ml sodium heparin (Leo, Denmark) in anaesthesized rats. The resulting cell suspension, which mainly contained macrophages, was transferred to a test tube and washed twice by centrifugation (200 g, 10 min.) and resuspended in Hank's balanced salt solution containing 0.5% bovine serum albumin (Sigma Chem. Co., U.S.A.). The cells from 6 rats were finally resuspended in Hank's balanced salt solution containing 5 μCi (1-^14 C) arachidonic acid (The Radiochemical Centre, Amersham, U.K.) and incubated for 90 minutes at 30° C. This caused labelling of cell membrane phospholipids as radioactive arachidonic acid was incorporated in the 2-position of the glycerol moiety. Excess arachidonic acid was then removed by washing the cells twice as described above. The cells were finally resuspended in the same solution at 10^7 cells/ml. 475 μl of the cell suspension was preincubated at 37° C. for 5 minutes with either 5 μl DMSO (control tube), or 5 μl of a drug solution in DMSO. Then 20 μl of a mixture of equal volumes of the calcium ionophore A 23187, 10^-4 M in ethanol (Calbiochem, U.S.A.), and 0.5M CaCl2 in water was added. The final concentration of A 23187 was thus 2×10^-6 M, transferred to an ice-bath and centrifugated for 10 minutes at 3,000 g (4° C.). An aliquot of the supernatant was counted by liquid scintillation spectrometry in order to calculate the total radioactive release induced by A 23187 in presence of drugs. […] Radioactive spots were detected by autoradiography (AGFA-GEVAERT, Osray-RPI X-ray film, Belgium), and changes induced by drugs in the metabolic pattern of arachidonic acid were quantified by a laser densitometer (LKB, Ultroscan™ 2202, Bromma, Sweden) in combination with an integrating computer (SP 4100, SpectraPhysics, San Jose, Calif., U.S.A.). […]

release of leukotrienes = test: A 23187-induced leukotriene release in the peritoneal cavity of rats in vivo; parameters: species or system rat; settings: administered prior to intraperitoneal A 23187
Description: Two in vivo methods were used to assess the effect of either oral or parenteral administration of the compounds to experimental animals on the release of leukotrienes. In the first method, calcium ionophore A 23187 was injected into the peritoneal cavity of adrenalectomized and anaestesized rats. 5 minutes later the cavity was washed, and the leukotrienes were extracted with ethanol and redissolved in water or buffer. The amount of leukotriene D4 released in response to A 23187 was determined by bioassay, using the contraction of an isolated guinea-pig ileum-strip as indicator. Leukotriene C4 and B4 were measured by commercially available radioimmunoassays (New England Nuclear, Dreieich, West Germany, and The Radiochemical Centre, Amersham, U. K., respectively).

[4] = tested on: asthmatic reaction (airway resistance) in guinea-pigs; test: Asthmatic reaction in ovalbumin-hypersensitive guinea-pigs (Konzett-Rossler); type: in vivo, guinea-pig; settings: ovalbumin i.v. challenge; mepyramine, indomethacin and propranolol pretreated
Description: The other method was used to measure a physiological consequence of leukotriene release in the lungs, an asthmatic attack. Guinea-pigs hypersensitive to ovalbumin were anaestesized and mechanically ventilated with a constant airvolumen ad modum Konzett-Rossler. The animals were pretreated with mepyramine, indomethacin and propranolol to avoid interference with endogenous production of histamine, prostaglandins and β-adrenergic mechanisms, respectively. They were then challenged with an intravenous injection of ovalbumin, and the increase in airway resistance was measured by the respiratory overflow.

[5] = antigen ovalbumin, passively sensitized mast cells, read-out: Inhibition (%) of histamine release induced by Antigen
[6] = compound 48/80, unsensitized mast cells, read-out: Inhibition (%) of histamine release induced by Cp. 48/80

Compound	concentration at which leukotriene D4-induced contraction is inhibited [1]	inhibition at 10 µM (rat peritoneal mast cell; [5]) [%]	inhibition at 10 µM (rat peritoneal mast cell; [6]) [%]	other results
CC(=O)Nc1cccc(OCc2ccc3ccccc3n2)c1 [11 (part A), 3-(2'-Quinolylmethoxy)acetanilide]	submicromolar range			
CNc1cccc(OCc2ccc3ccccc3n2)c1 [11 (part C), 3-(2'-Quinolylmethoxy)-N-methylaniline]	submicromolar range			
O=C(O)c1ccc(CN(Cc2cccc(F)c2)c2ccc(OCc3ccc4ccccc4n3)cc2)cc1 [ETH615, 4-(2'-quinolylmethoxy)-N-(3"-fluorobenzyl)-N-(4'"-carboxybenzyl)aniline]				synthesis of IL-8 messenger RNA [2]: inhibit the synthesis of messenger RNA; gene expression of IL-8 in endothelial cells (gene expression of IL-8; endothelial cells stimulated by LPS or IL-1): suppress the gene expression of IL-8; gene expression of IL-8 in fibroblasts (gene expression of IL-8; fibroblasts stimulated by LPS or IL-1): suppress the gene expression of IL-8; gene expression of IL-8 in keratinocytes (gene expression of IL-8; keratinocytes stimulated by LPS or IL-1): suppress the gene expression of IL-8; IL-1 mRNA production (IL-1 mRNA in PBMC): inhibits IL-1 mRNA production; IL-1 release [3]: suppression of IL-1 release
O=C(O)c1cccc(CN(Cc2ccccc2)c2ccc(OCc3ccc4ccccc4n3)cc2)c1 [ETH647]				synthesis of IL-8 messenger RNA [2]: inhibit the synthesis of messenger RNA
CNc1ccc(OCc2ccc3ccccc3n2)cc1 [Ex. 10, part C, 4-(2'-Quinolylmethoxy)-N-methylaniline]		51	19	
c1ccc(CNc2ccc(OCc3ccc4ccccc4n3)cc2)cc1 [Ex. 38, 4-(2'-Quinolylmethoxy)-N-benzylaniline]		91	85	
NCCCCCCNc1ccc(OCc2ccc3ccccc3n2)cc1 [Ex. 66, 4-(2'-Quinolylmethoxy)-N-1"-(6"-amino-n-hexyl)aniline]		100	65	
c1ccc(CNc2cccc(OCc3ccccn3)c2)cc1 [Ex. 68, 3-(2'-Pyridylmethoxy)-N-benzylaniline]		45	17	
CCCNc1ccc(OCc2ccccn2)cc1 [Ex. 70]		100	45	
CCCN(CCC)c1ccc(OCc2ccc3ccccc3n2)cc1 [Ex. 77, 4-(2'-Quinolylmethoxy)-N,N-di-n-propylaniline]		100	92	
Clc1cc(OCc2ccncc2)ccc1NCc1ccccc1 [Ex. 78, part C, 2-Chloro-4-(4'-pyridylmethoxy)-N-benzylaniline]	submicromolar range	96	95	
Clc1cc(NCc2ccccc2)ccc1OCc1ccncc1 [Ex. 79, part C, 3-Chloro-4-(4'-pyridylmethoxy)-N-benzylaniline]		100	95	
CN(C)c1cccc(OCc2ccc3ccccc3n2)c1 [Example 18, 3-(2'-Quinolylmethoxy)-N,N-dimethylaniline]	submicromolar range			
CCCCNc1ccc(OCc2ccc3ccccc3n2)cc1 [Example 22, 4-(2'-Quinolylmethoxy)-N-n-butylaniline]	submicromolar range	100	75	
CCCCNc1cccc(OCc2ccc3ccccc3n2)c1 [Example 23, 3-(2'-Quinolylmethoxy)-N-n-butylaniline]	submicromolar range			
c1ccc(CNc2cccc(OCc3ccc4ccccc4n3)c2)cc1 [Example 39, 3-(2'-Quinolylmethoxy)-N-benzylaniline]	submicromolar range	100	95	
CNc1ccc(OCc2cccnc2)cc1 [OT 3447, 4-(3'-Pyridylmethoxy)-N-methylaniline]				production of 5-HETE (5-lipoxygenase): significant and specific decrease; production of leukotriene B4 (5-lipoxygenase): significant and specific decrease; synthesis of prostaglandin D2 (cyclooxygenase): not affected; synthesis of the cyclooxygenase product HHT (cyclooxygenase): not affected; synthesis of thromboxane B2 (cyclooxygenase): not affected; leukotriene B4 formation (radioimmunoassay) (release of leukotrienes): substantial inhibition; leukotriene C4 formation (radioimmunoassay) (release of leukotrienes): substantial inhibition; leukotriene D4 formation (bioassay, guinea-pig ileum-strip) (release of leukotrienes): substantial inhibition; asthmatic reaction [4]: significantly reduced
